According to US10752587B2, “Homobispiperidinyl derivatives as liver X receptor beta agonists, compositions and their use” (Merck Sharp & Dohme Corp., priority 2015, dated 2020):
Read-outs that look alike come from different tables or passages of the source.

What was measured:
[1] = target: T1, glutathione-S-transferase (GST) tagged LXRbeta LBD (ligand binding domain) (Homo sapiens, UniProt P55055); assay: LanthaScreen TR-FRET Liver X Receptor Coactivator Assay, co-activator recruitment to LXRbeta LBD; format: biochemical
T1 construct: purchased Invitrogen pv4658.pps
T1 sequence (P55055 222-460 limits assumed): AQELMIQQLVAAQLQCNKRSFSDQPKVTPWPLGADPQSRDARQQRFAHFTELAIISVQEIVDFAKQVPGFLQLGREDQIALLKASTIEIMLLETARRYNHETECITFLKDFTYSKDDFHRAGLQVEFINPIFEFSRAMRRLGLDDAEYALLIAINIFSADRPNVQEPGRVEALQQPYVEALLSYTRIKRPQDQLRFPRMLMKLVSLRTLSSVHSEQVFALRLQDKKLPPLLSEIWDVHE
Summary of the method: (§1)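 GST-tagged LBD added to test compound, then fluorescein-labelled coactivator peptide plus terbium anti-GST antibody; incubated at room temperature, TR-FRET read. Potency given as inflection point and efficacy as Emax relative to reference dual agonist T0901317.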

[2] = target: T2, glutathione-S-transferase (GST) tagged LXRalpha LBD (ligand binding domain) (Homo sapiens, UniProt Q13133); assay: LanthaScreen TR-FRET Liver X Receptor Coactivator Assay, co-activator recruitment to LXRalpha LBD; format: biochemical; settings: for EC50 / LXR alpha IP (nM): potency (Inflection Point, IP), co-activator recruitment to LXRalpha LBD, in relation to T0901317; for EC50: read-out: LXR alpha IP
T2 construct: purchased Invitrogen pv4655
T2 sequence (Q13133 209-447 limits assumed): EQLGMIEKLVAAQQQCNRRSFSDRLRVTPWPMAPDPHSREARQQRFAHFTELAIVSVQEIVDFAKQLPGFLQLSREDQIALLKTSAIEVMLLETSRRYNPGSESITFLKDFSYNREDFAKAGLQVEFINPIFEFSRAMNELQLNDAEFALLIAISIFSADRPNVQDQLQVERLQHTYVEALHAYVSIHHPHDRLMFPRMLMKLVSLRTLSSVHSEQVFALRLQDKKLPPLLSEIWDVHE
Summary of the method: as §1

[3] = efficacy at max dose, in relation to reference dual agonist T0901317, read-out: LXR beta Activity @ max dose (%)
[4] = potency (Inflection Point, IP), co-activator recruitment to LXRbeta LBD, in relation to T0901317, read-out: LXR beta IP
[5] = efficacy at max dose, in relation to reference dual agonist T0901317, read-out: LXR alpha Activity @ max dose (%)
[6] = efficacy at max dose, in relation to reference dual agonist T0901317

| Emax [1, 3] | EC50 [1, 4] | Emax [2, 5] | EC50 [2] | LXR alpha IP (nM) [2] | Structure (SMILES) | also measured |
| --- | --- | --- | --- | --- | --- | --- |
| 40% | 7 nM | 23% | 30 nM |  | CCc1cccc([C@@](O)(C(=O)N2CCC(CC3CCN(c4ccc(C(N)=O)c(Cl)c4)CC3)CC2)C(F)(F)F)c1 [Example 12-6, 2-chloro-4-[4-({1-[(2R)-2-(3-ethylphenyl)-3,3,3-trifluoro-2-hydroxy-propanoyl]piperidin-4-yl}methyl)piperidin-1-yl]benzamide] |  |
| 76% | 13 nM | 9% |  | NO IP | CNC(=O)c1ccc(N2CCC(CC3CCN(C(=O)[C@](O)(c4cc(Cl)cc(Cl)c4)C(F)(F)F)CC3)CC2)cc1Cl [Example 7-116, 2-chloro-4-[4-({1-[(2R)-2-(3,5-dichlorophenyl)-3,3,3-trifluoro-2-hydroxypropanoyl]piperidin-4-yl}methyl)piperidin-1-yl]-N-methylbenzamide] |  |
| 79% | 21 nM | 22% | 1510 nM |  | CN(C)C(=O)c1ccc(N2CCC(CC3CN(C(=O)[C@](O)(c4cccc(OC(F)(F)F)c4)C(F)(F)F)C3)CC2)cc1Cl [Example 2-63, 2-chloro-N,N-dimethyl-4-{4-[(1-{(2R)-3,3,3-trifluoro-2-hydroxy-2-[3-(trifluoro-methoxy)phenyl]propanoyl}azetidin-3-yl)methyl]piperidin-1-yl}benzamide] |  |
| 26% | 298 nM | 0% |  | NO IP | CN(C)C(=O)c1ccc(N2CCC(CC3CCN(C(=O)C(O)(c4ccc(Cl)cc4)C(F)(F)F)CC3)CC2)cc1Cl (stereo not drawn) [Example 2-15, 2-chloro-4-[4-({1-[2-(4-chlorophenyl)-3,3,3-trifluoro-2-hydroxy-propanoyl]piperidin-4-yl}methyl)piperidin-1-yl]-N,N-dimethyl-benzamide] |  |
|  |  |  |  |  | CN(C)C(=O)c1ccc(N2CCC(CC3CCN(S(=O)(=O)c4ccc(Cl)s4)CC3)CC2)cc1Cl [Example 13-9, 2-chloro-4-[4-({1-[(5-chlorothiophen-2-yl)-sulfonyl]piperidin-4-yl}methyl)piperidin-1-yl]-N,N-dimethylbenzamide] | EC50 ([1]; co-activator recruitment to GST-LXRbeta LBD, TR-FRET, read-out: LXR beta IP (Inflection Point, potency)): 230 nM; Emax ([1]; efficacy in relation to reference dual agonist T0901317, read-out: LXR beta Activity @ max dose): 20%; LXR alpha IP (Inflection Point, potency) ([2]; co-activator recruitment to GST-LXRalpha LBD, TR-FRET): NO IP; Emax ([2]; efficacy in relation to reference dual agonist T0901317, read-out: LXR alpha Activity @ max dose): 0% |
| 77% | 10 nM | 21% | 356 nM |  | CN(C)C(=O)c1ccc(N2CCC(CC3CCN(C(=O)C(O)(c4cccc(C(F)(F)F)c4)C(F)(F)F)CC3)CC2)nc1Cl (stereo not drawn) [Example 7-54, 2-chloro-N,N-dimethyl-6-{4-[(1-{3,3,3-trifluoro-2-hydroxy-2-[3-(trifluoromethyl)phenyl]propanoyl}piperidin-4-yl)methyl]piperidin-1-yl}pyridine-3-carboxamide] |  |
|  | 3 nM |  |  | NO IP | CN(C)C(=O)c1ccc(N2CCC(CC3CCN(C(=O)[C@](O)(c4cc(Cl)cc(Cl)c4)C(F)(F)F)CC3)CC2)nc1Cl [Example 7-104, 2-chloro-6-[4-({1-[(2R)-2-(3,5-dichlorophenyl)-3,3,3-trifluoro-2-hydroxypropanoyl]piperidin-4-yl}methyl)piperidin-1-yl]-N,N-dimethylpyridine-3-carboxamide] | LXR beta Activity @ max dose (%) [1, 6]: 51%; LXR alpha Activity @ max dose (%) [2, 6]: 0% |
| 37% | 8 nM | 0% |  | NO IP | CN(C)C(=O)c1ccc(N2CCC(CC3CCN(C(=O)[C@](O)(c4cccc(OC5CC5)c4)C(F)(F)F)CC3)CC2)cc1Cl [Example 2-99, 2-chloro-4-{4-[(1-{(2R)-2-[3-(cyclopropyloxy)phenyl]-3,3,3-trifluoro-2-hydroxy-propanoyl}piperidin-4-yl)methyl]piperidin-1-yl}-N,N-dimethyl-benzamide] |  |
| 133% | 99 nM | 81% | 2550 nM |  | CNC(=O)c1ccc(N2CCC(CC3CCN(C(=O)C(O)(c4cccnc4)C(F)(F)F)CC3)CC2)nc1Cl (stereo not drawn) [Example 7-142, 2-chloro-N-methyl-6-(4-{[1-(3,3,3-trifluoro-2-hydroxy-2-pyridin-3-ylpropanoyl)piperidin-4-yl]methyl}piperidin-1-yl)pyridine-3-carboxamide] |  |
| 60% | 22 nM | 26% | 875 nM |  | CN(C)C(=O)c1ncc(N2CCC(CC3CCN(C(=O)C(O)(c4cccc(Cl)c4)C(F)(F)F)CC3)CC2)cc1Cl (stereo not drawn) [Example 2-6, 3-chloro-5-[4-({1-[2-(3-chlorophenyl)-3,3,3-trifluoro-2-hydroxy-propanoyl]piperidin-4-yl}methyl)piperidin-1-yl]-N,N-dimethylpyridine-2-carboxamide] |  |
| 75% | 165 nM | 32% |  | NO IP | CN(C)C(=O)c1ccc(N2CCC(CC3CCN(C(=O)C(F)(F)c4ccccc4)CC3)CC2)nc1Cl [Example 7-86, 2-chloro-6-[4-({1-[difluoro(phenyl)acetyl]piperidin-4-yl}methyl)piperidin-1-yl]-N,N-dimethylpyridine-3-carboxamide] |  |
| 63% | 14 nM | 10% |  | NO IP | COc1cccc(C(O)(C(=O)N2CCC(CC3CCN(c4ccc(C(=O)N(C)C)c(Cl)c4)CC3)CC2)C(F)(F)F)c1F (stereo not drawn) [Example 2-41, 2-chloro-N,N-dimethyl-4-[4-({1-[3,3,3-trifluoro-2-(2-fluoro-3-methoxyphenyl)-2-hydroxy-propanoyl]piperidin-4-yl}methyl)piperidin-1-yl]benzamide] |  |
| 21% | 236 nM | 0% |  | NO IP | COc1cccc([C@@](N)(C(=O)N2CCC(CC3CCN(c4ccc(C(=O)N(C)C)c(Cl)n4)CC3)CC2)C(F)(F)F)c1 [Example 7-114, 6-[4-({1-[(2R)-2-amino-3,3,3-trifluoro-2-(3-methoxyphenyl)propanoyl]piperidin-4-yl}methyl)piperidin-1-yl]-2-chloro-N,N-dimethylpyridine-3-carboxamide] |  |
| 99% | 78 nM | 46% | 3550 nM |  | CN(C)C(=O)c1ccc(N2CCC(CC3CCN(C(=O)C(O)(c4cccnc4)C(F)(F)F)CC3)CC2)cc1Cl (stereo not drawn) [Example 2-90, 2-chloro-N,N-dimethyl-4-(4-{[1-(3,3,3-trifluoro-2-hydroxy-2-pyridin-3-ylpropanoyl)piperidin-4-yl]methyl}piperidin-1-yl)benzamide] |  |
| 76% | 31 nM | 50% | 516 nM |  | O=C(c1ccc(N2CCC(OC3CCN(C(=O)[C@](O)(c4ccccc4)C(F)(F)F)CC3)CC2)cc1Cl)N1CCC[C@H]1CO [Example 4-7, (2R)-3-(4-{[1-(3-chloro-4-{[(2S)-2-(hydroxy-methyl)pyrrolidin-1-yl]carbonyl}phenyl)piperidin-4-yl]oxy}piperidin-1-yl)-1,1,1-trifluoro-3-oxo-2-phenylpropan-2-ol] |  |
| 41% | 6 nM | 10% |  | NO IP | CCc1cccc(C(O)(C(=O)N2CCC(CC3CCN(c4ccc(C(=O)N(C)C)c(Cl)n4)CC3)CC2)C(F)(F)F)c1 (stereo not drawn) [Example 7-90, 2-chloro-6-[4-({1-[2-(3-ethylphenyl)-3,3,3-trifluoro-2-hydroxypropanoyl]piperidin-4-yl}methyl)piperidin-1-yl]-N,N-dimethylpyridine-3-carboxamide] |  |
| 82% | 3 nM | 30% | 70 nM |  | CN(C)C(=O)c1ccc(N2CCC(CC3CCN(C(=O)[C@](O)(c4cccc(Cl)c4)C(F)(F)F)CC3)CC2)nc1Cl [Example 7-69, 2-chloro-6-[4-({1-[(2R)-2-(3-chlorophenyl)-3,3,3-trifluoro-2-hydroxypropanoyl]piperidin-4-yl}methyl)piperidin-1-yl]-N,N-dimethylpyridine-3-carboxamide] |  |

| Structure (SMILES) | Emax [1, 3] | EC50 [1, 4] | Emax [2, 5] | EC50 [2] | LXR alpha IP (nM) [2] | also measured |
| --- | --- | --- | --- | --- | --- | --- |
| CN(C)C(=O)c1ccc(N2CCC(CC3CCN(C(=O)C(O)(c4ccccc4)c4ccsc4)CC3)CC2)nc1Cl (stereo not drawn) [Example 7-96, 2-chloro-6-[4-({1-[hydroxy(phenyl)thiophen-3-ylacetyl]piperidin-4-yl}methyl)piperidin-1-yl]-N,N-dimethylpyridine-3-carboxamide] |  |  |  |  | NO IP | EC50 ([1]; LXR beta IP (nM), potency (Inflection Point, IP), co-activator recruitment to LXRbeta LBD, in relation to T0901317): 89 nM; Emax ([1]; read-out: LXR beta Activity @ max dose (%)): 23%; Emax ([2]; read-out: LXR alpha Activity @ max dose (%)): 5% |
